Earlier results, collected in patent publication US20210008209A1, “COMBINATION THERAPY FOR TTR AMYLOIDOSIS” (Corino Therapeutics, Inc., priority 2018, published 2021).

Columns and labels:
TTR native tetramer [1] = conditions: mice
TTR = target: T1, TTR (Homo sapiens, UniProt P02766)
T1 construct: host or cells: human plasma

TTR native tetramer [2] = target: T2, TTR native tetramer (Homo sapiens, UniProt P02766); conditions: humans
T2 construct: host or cells: humans (in vivo)

binding to TTR in human plasma (TTR): binds specifically to TTR
stabilization of the native tetramer in vivo (TTR native tetramer [2]): stabilizes the native tetramer
SMILES: Cc1ccc(C(=O)c2cc(O)c(O)c([N+](=O)[O-])c2)cc1 [Tolcapone, tolcapone]
stabilization of the native tetramer in vivo (TTR native tetramer [1]): stabilizes the native tetramer
TTR cytotoxicity (TTR cytotoxicity): inhibits TTR cytotoxicity
